Like-named read-outs stand apart in the source and are kept apart here.
Legend:
[1] = system: acetylation of α-tubulin in A549 cells; experiment: Western blot analysis of tubulin acetylation in A549 cells; type: cell-based, human; conditions: SAHA at 5 μM
Description: (§1) After treated with test compounds (i.e., compounds of example 1), cells were lysed on ice, and cell lysates were collected and subjected to SDS-PAGE. Immunoblotting was performed using specific antibodies to evaluate the expression of proteins.
(§2) The intracellular histone acetylation status is a direct indicator for class I HDAC inhibition, whereas α-tubulin is the substrate of class II HDAC (i.e., HDAC 6).

[2] = target: HDAC1 (Homo sapiens (Human), UniProt Q13547); experiment: HDAC fluorescent activity assay (HDAC1); type: biochemical
Description: (§3) The HDAC activity was performed using the HDAC fluorescent activity assay kit (BIOMOL, Plymouth Meeting, Pa., USA) according to the manufacturer's instructions. Briefly, recombinant proteins of HDAC1 or HDAC6 were incubated with test compounds, and HDAC reaction was initiated by addition of Fluor-de-Lys substrate. Samples were incubated for 10 min at room temperature, followed by adding developer to stop the reaction. Fluorescence was measured by fluorometric reader with excitation at 360 nm and emission at 460 nm. The HDAC activity was expressed as arbitrary fluorescence units (AFU). […] The half maximal inhibitory concentration (IC50) values for the test compounds were calculated from software SigmaPlot.

[3] = target: HDAC2 (Homo sapiens (Human), UniProt Q92769); experiment: HDAC fluorescent activity assay (HDAC2); type: biochemical
[4] = target: HDAC6 (Homo sapiens (Human), UniProt Q9UBN7); experiment: HDAC fluorescent activity assay (HDAC6); type: biochemical; conditions: mean ± SD of three experiments
Description: as §3

[5] = system: acetylation of histone H3 in A549 lung cancer cells; experiment: Western blot analysis of histone acetylation in A549 cells; type: cell-based, human; conditions: SAHA at 5 μM
Description: as §1, §2

[6] = target: HMGR (Homo sapiens (Human), UniProt P04035); experiment: HMG-CoA reductase (HMGR) activity assay, recombinant protein; type: biochemical; conditions: for IC50: mean ± SD of three experiments
Text: HMG-CoA Reductase (HMGR) Activity Assay.

[7] = target: HMGR activity in A549 lung cancer cells (Homo sapiens (Human), UniProt P04035); experiment: HMGR activity in whole cell lysates of treated A549 lung cancer cells; conditions: 1-50 μM, 24 h
Chain of HMGR activity in A549 lung cancer cells (P04035 whole entry): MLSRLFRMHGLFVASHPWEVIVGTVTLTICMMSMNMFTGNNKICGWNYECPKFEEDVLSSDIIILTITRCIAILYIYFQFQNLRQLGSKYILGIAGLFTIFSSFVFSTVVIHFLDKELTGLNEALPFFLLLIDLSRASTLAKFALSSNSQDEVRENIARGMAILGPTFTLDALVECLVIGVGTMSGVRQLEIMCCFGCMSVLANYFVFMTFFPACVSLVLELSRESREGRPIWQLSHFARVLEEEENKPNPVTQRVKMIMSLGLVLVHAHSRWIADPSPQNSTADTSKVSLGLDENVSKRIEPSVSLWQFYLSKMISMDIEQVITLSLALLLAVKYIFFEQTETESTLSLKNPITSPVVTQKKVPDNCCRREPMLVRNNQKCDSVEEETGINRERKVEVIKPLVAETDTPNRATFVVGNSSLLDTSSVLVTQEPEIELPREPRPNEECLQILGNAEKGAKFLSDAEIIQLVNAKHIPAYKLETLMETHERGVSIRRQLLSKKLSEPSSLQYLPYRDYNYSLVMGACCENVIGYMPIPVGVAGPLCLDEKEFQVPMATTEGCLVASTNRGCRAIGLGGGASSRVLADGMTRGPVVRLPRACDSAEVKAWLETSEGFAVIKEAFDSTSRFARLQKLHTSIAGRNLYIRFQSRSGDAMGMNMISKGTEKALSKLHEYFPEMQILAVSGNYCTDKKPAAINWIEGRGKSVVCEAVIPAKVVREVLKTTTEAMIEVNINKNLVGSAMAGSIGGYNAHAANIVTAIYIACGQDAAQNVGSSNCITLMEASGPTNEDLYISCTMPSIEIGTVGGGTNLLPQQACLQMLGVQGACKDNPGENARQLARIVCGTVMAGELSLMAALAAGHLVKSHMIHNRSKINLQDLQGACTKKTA
Description: A549 cells were cultured in Dulbecco's modified Eagle's medium (DMEM) in a humidified incubator containing 5% CO2/95% air.
The HMGR activity was performed using HMG-CoA reductase assay kit from Sigma-Aldrich with the human recombinant protein or 100 μg total cell lysates from A549 cells. […] HMGR activity under defined assay conditions, containing NADPH and HMG-CoA substrate in a final volume of 0.2 mL of 100 mM potassium phosphatate buffer (120 mM KCI, 1 mM EDTA, 5 mM DTT, pH 7.4), were initiated in the presence or absence (control) of test compounds dissolved in dimethylsulfoxide (DMSO). The rates of NADPH consumption were monitored every 20 seconds, for up to 10 minutes, by spectrophotometer at 37° C. and 340 nm. The HMGR activity was calculated as a percentage of activity compared with the control group at 5 min. The IC50 values were calculated from software SigmaPlot.

Chain of HDAC1 (Q13547 whole entry, species assumed): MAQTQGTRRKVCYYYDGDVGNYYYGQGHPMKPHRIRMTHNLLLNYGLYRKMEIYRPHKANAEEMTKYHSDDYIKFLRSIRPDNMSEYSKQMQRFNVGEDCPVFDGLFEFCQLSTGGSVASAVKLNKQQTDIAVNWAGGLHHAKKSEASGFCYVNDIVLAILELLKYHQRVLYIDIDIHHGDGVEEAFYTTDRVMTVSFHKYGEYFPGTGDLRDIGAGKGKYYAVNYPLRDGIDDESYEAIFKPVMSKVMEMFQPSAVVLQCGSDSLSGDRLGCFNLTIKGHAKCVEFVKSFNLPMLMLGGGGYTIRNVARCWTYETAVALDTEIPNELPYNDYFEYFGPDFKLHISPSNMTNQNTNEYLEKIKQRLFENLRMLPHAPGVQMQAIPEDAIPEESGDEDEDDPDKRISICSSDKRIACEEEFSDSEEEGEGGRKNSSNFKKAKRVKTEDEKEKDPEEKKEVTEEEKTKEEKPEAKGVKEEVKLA
Chain of HMGR (P04035 426-888 limits assumed): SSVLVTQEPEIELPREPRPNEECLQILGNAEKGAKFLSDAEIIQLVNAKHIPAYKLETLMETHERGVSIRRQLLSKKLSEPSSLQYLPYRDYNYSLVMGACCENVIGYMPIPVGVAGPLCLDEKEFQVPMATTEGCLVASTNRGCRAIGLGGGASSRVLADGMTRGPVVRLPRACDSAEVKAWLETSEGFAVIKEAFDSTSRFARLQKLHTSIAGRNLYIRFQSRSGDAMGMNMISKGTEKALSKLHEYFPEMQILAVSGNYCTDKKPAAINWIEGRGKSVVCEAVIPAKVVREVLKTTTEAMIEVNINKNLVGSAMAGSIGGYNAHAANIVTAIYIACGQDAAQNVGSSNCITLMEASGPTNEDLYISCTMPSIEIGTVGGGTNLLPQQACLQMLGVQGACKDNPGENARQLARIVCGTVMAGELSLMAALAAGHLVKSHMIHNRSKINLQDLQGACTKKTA
Chain of HDAC2 (Q92769 whole entry, species assumed): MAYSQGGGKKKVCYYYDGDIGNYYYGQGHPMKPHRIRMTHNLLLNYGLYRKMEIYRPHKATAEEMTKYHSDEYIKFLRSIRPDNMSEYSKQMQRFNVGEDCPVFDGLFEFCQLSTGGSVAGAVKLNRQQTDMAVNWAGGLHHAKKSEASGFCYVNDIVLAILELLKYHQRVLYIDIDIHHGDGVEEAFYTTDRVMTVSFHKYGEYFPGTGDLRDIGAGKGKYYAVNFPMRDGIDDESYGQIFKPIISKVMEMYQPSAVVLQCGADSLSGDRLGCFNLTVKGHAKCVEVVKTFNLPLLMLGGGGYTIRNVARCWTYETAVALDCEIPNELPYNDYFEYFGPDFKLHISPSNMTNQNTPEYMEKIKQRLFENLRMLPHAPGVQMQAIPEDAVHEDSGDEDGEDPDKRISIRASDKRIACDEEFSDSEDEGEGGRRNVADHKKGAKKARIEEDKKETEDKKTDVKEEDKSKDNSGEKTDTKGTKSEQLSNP
Chain of HDAC6 (Q9UBN7 whole entry, species assumed): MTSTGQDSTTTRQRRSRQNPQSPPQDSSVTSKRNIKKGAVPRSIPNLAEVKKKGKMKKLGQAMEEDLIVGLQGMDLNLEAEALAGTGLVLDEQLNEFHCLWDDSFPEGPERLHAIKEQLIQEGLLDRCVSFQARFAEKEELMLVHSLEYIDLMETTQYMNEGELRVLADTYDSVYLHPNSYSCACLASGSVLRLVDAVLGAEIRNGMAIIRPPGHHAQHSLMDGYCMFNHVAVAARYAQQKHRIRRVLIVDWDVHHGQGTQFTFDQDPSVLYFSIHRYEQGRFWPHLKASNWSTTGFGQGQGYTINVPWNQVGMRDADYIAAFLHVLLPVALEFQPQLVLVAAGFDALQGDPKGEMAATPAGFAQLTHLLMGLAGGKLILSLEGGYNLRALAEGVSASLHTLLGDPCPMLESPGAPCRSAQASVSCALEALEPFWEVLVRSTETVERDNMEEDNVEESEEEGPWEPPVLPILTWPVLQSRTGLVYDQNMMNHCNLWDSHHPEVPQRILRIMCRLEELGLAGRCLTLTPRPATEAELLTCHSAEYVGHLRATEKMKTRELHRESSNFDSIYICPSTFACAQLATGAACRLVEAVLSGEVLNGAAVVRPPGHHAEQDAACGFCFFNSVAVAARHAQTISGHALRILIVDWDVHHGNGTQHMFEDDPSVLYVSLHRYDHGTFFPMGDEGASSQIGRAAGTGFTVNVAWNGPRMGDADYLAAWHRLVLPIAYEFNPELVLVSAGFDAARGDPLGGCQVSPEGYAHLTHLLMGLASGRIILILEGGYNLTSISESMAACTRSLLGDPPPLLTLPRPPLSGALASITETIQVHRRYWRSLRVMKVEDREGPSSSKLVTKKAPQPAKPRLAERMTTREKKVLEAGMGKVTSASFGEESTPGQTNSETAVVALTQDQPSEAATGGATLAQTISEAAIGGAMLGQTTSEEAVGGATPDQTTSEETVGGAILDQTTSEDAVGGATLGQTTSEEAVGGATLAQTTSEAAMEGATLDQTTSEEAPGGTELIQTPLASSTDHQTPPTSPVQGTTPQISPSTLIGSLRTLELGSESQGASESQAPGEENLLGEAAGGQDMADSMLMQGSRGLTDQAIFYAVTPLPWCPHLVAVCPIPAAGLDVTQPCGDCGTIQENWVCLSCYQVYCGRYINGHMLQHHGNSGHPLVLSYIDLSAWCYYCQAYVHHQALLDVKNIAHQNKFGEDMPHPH

reduction of HMGR activity in whole cell lysates (in words) [7]	SMILES	tubulin acetylation (Western blot) [1]	IC50 [2] [nM]	IC50 [3] [nM]	IC50 [4] [nM]	histone acetylation (Western blot) [5]	IC50 ([2]; mean ± SD of three experiments) [nM]	IC50 ([3]; mean ± SD of three experiments) [nM]	IC50 [6] [nM]	inhibition of HMGR activity (in words) ([6]; enzyme assay, any dose)
	C[C@H]1C=C2C=C[C@H](C)[C@H](CC[C@@H]3C[C@@H](O[Si](C)(C)C(C)(C)C)CC(=O)O3)[C@H]2[C@@H](OC(=O)Nc2ccc(-c3cn(CCCCCCC(=O)NO)nn3)cc2)C1 [8a, (4R,6R)-6-(2-{(1S,2S,6R,8S,8aR)-8-[(4-{1-[7-(Hydroxyamino)-7-oxoheptyl]-1H-1,2,3-triazol-4-yl}phenyl)carbamoyloxy]-2,6-dimethyl-1,2,6,7,8,8a-hexahydronaphthyl}ethyl)-4-tert-butyldimethylsilyloxy-3,4,5,6-tetrahydro-2H-pyran-2-one]	promoted histone and tubulin acetylation in a dose dependent manner	159 ± 8.4	463 ± 28	127 ± 21.5	promoted histone and tubulin acetylation in a dose dependent manner				
	C[C@H]1C=C2C=C[C@H](C)[C@H](CC[C@@H]3C[C@@H](O[Si](C)(C)C(C)(C)C)CC(=O)O3)[C@H]2[C@@H](OC(=O)NCCCCCCC(=O)NO)C1 [12a, (4R,6R)-6-[2-((1S,2S,6R,8S,8aR)-8-{[7-(Hydroxyamino)-7-oxoheptyl]carbamoyloxy}-2,6-dimethyl-1,2,6,7,8,8a-hexahydronaphthyl)ethyl]-4-tert-butyldimethylsilyloxy-3,4,5,6-tetrahydro-2H-pyran-2-one]				140 ± 5.7		122 ± 12.7	658 ± 21.1		
	C[C@H]1C=C2C=C[C@H](C)[C@H](CC[C@@H]3C[C@@H](O[Si](C)(C)C(C)(C)C)CC(=O)O3)[C@H]2[C@@H](OC(=O)NCc2ccc(-c3cn(CCCCCCC(=O)NO)nn3)cc2)C1 [8b, (4R,6R)-6-(2-{(1S,2S,6R,8S,8aR)-8-[(4-{1-[7-(Hydroxyamino)-7-oxoheptyl]-1H-1,2,3-triazol-4-yl}benzyl)carbamoyloxy]-2,6-dimethyl-1,2,6,7,8,8a-hexahydronaphthyl}ethyl)-4-tert-butyldimethylsilyloxy-3,4,5,6-tetrahydro-2H-pyran-2-one]	promoted histone and tubulin acetylation in a dose dependent manner	125 ± 6.3	882 ± 9.7	34 ± 4.3	promoted histone and tubulin acetylation in a dose dependent manner				
	CC[C@H](C)C(=O)O[C@H]1C[C@@H](C)C=C2C=C[C@H](C)[C@H](CC[C@@H]3C[C@@H](O)CC(=O)O3)[C@H]21 [lovastatin, reference compound]	no effect				no effect				
	C#Cc1ccc(NC(=O)O[C@H]2C[C@@H](C)C=C3C=C[C@H](C)[C@H](CC[C@@H]4C[C@@H](O[Si](C)(C)C(C)(C)C)CC(=O)O4)[C@H]32)cc1 [6a, (4R,6R)-6-(2-{(1 S,2S,6R,8S,8aR)-8-[(4-ethynylphenyl)carbamoyloxy]-2,6-dimethyl-1,2,6,7,8,8a-hexahydronaphthyl}ethyl)-4-tert-butyldimethylsilyloxy-3,4,5,6-tetrahydro-2H-pyran-2-one]		159 ± 8.4	463 ± 28	127 ± 21.5				36.5 ± 5.3	
failed to inhibit HMGR at any dose	O=C(CCCCCCC(=O)Nc1ccccc1)NO [SAHA, suberanilohydroxamic acid, reference compound]	markedly induced				markedly induced				no inhibition on HMGR activity at any dose
	C#Cc1ccc(CNC(=O)O[C@H]2C[C@@H](C)C=C3C=C[C@H](C)[C@H](CC[C@@H]4C[C@@H](O[Si](C)(C)C(C)(C)C)CC(=O)O4)[C@H]32)cc1 [6b, (4R,6R)-6-(2-{(1S,2S,6R,8S,8aR)-8-[(4-Ethynylbenzyl)carbamoyloxy]-2,6-dimethyl-1,2,6,7,8,8a-hexahydronaphthyl}ethyl)-4-tert-butyldimethylsilyloxy-3,4,5,6-tetrahydro-2H-pyran-2-one]				34 ± 4.3		125 ± 6.3	882 ± 9.7	53.8 ± 5.2	

From patent publication US9115116B2, “Dual action inhibitors against histone deacetylases and 3-hydroxy-3-methylglutaryl coenzyme a reductase” (Academia Sinica, priority 2013, dated 2015)
